Reference: ChEMBL document CHEMBL1154355, “Identification of the bioactive constituent and its mechanisms of action in mediating the anti-inflammatory effects of black cohosh and related Cimicifuga species on human primary blood macrophages” (2009)
Active and inactive are the calls of the source. The calls are words filed in the database; no cut-off is given here.

Legend:
PBMC [1] = test: Inhibition of LPS-induced NFkappaB p65 subunit translocation into nucleus in human PBMC at 140 uM pretreated 24 hrs before inducer-challenge measured 15 mins after LPS addition by Western blot; type: functional, cell-based
[2] = molecular target: Mitogen-activated protein kinase; ERK1/ERK2 (Homo sapiens) (UniProt P27361+P28482); test: Inhibition of LPS-induced ERK1/2 phosphorylation in human PBMC at 140 uM pretreated 24 hrs before inducer-challenge measured 15 mins after LPS addition by Western blot; type: protein assay
PBMC [3] = test: Antiinflammatory activity in human PBMC assessed as inhibition of 1 ng/ml LPS-induced TNFalpha release at 140 uM pretreated 24 hrs before inducer-challenge measured 24 hrs after LPS addition by ELISA; type: functional
[4] = molecular target: MAP kinase p38 (Homo sapiens) (UniProt O15264+Q15759+Q16539+P53778); test: Inhibition of LPS-induced p38 MAPK phosphorylation in human PBMC at 140 uM pretreated 24 hrs before inducer-challenge measured 15 mins after LPS addition by Western blot; type: protein assay
PBMC [5] = test: Antiinflammatory activity in human PBMC assessed as inhibition of 10 ng/ml LPS-induced TNFalpha release at 140 uM pretreated 24 hrs before inducer-challenge measured 24 hrs after LPS addition by ELISA; type: functional
PBMC [6] = test: Antiinflammatory activity in human PBMC assessed as inhibition of 10 ng/ml LPS-induced TNFalpha release at 5.1 uM pretreated 24 hrs before inducer-challenge measured 24 hrs after LPS addition by ELISA; type: functional
PBMC [7] = test: Antiinflammatory activity in human PBMC assessed as inhibition of 10 ng/ml LPS-induced TNFalpha release at 1.3 uM pretreated 24 hrs before inducer-challenge measured 24 hrs after LPS addition by ELISA; type: functional

Chain of Mitogen-activated protein kinase; ERK1/ERK2 (Homo sapiens) (P27361 whole entry, looked up): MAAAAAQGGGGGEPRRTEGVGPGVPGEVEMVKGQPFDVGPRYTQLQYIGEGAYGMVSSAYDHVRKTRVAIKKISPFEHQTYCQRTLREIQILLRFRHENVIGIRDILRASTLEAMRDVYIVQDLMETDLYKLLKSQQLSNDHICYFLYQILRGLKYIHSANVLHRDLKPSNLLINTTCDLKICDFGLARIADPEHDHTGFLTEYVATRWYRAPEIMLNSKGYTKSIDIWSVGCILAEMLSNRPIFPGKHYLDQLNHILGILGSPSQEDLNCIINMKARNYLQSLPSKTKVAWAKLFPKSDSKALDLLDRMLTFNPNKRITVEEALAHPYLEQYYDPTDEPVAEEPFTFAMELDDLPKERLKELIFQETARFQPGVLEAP
Chain of Mitogen-activated protein kinase; ERK1/ERK2 (Homo sapiens) (P28482 whole entry, looked up): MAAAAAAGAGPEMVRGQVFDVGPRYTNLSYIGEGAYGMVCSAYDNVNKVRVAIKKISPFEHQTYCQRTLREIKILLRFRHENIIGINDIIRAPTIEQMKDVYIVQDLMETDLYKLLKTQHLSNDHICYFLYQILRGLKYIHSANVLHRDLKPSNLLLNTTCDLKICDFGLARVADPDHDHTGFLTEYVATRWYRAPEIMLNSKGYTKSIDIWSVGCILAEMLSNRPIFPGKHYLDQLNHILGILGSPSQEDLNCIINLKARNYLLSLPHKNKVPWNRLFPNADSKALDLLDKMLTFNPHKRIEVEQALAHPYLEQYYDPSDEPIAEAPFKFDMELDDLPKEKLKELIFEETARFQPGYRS

| inhibition [2] | inhibition [4] | Structure (SMILES) | inhibition (PBMC [1]) | inhibition (INH) (PBMC [3]) | inhibition (INH) (PBMC [5]) | inhibition (INH) (PBMC [6]) | inhibition (INH) (PBMC [7]) |
| --- | --- | --- | --- | --- | --- | --- | --- |
| Active | inactive | COc1ccc(/C=C/C(=O)OCC(=O)Cc2ccc(O)c(O)c2)cc1O [CIMIRACEMATE A] | Active | 47% | 58% | – | – |
| – | – | C[C@@H]1C[C@H]2[C@@H]3CCC4=CC(=O)C=C[C@]4(C)[C@@]3(F)[C@@H](O)C[C@]2(C)[C@@]1(O)C(=O)CO [DEXAMETHASONE] | – | – | – | 25% | 32% |
